Like-named read-outs stand apart in the source and are kept apart here.
Tested on: 284 cell lines
Test: cells
Description: A screen of 284 cell lines to assess the antiproliferative effect of EHMT2 inhibition was conducted by treating cell lines in 384-well format with a half-log step dilutions of Compound 205 over 10 concentrations with a maximum concentration of 0.1% v/v DMSO. Cells were plated on Day 0 and treated with compound on Day 1. Culture medium was replaced on day 7 and cells redosed. After 10-day incubation, cells were fixed and stained with nuclear dye. Automated fluorescence microscopy was carried out using a Molecular Devices ImageXpress Micro XL high-content imager, and images were collected with a 4× objective. 16-bit TIFF images were acquired and analyzed with MetaXpress 5.1.0.41 software. Cell proliferation was measured by the fluorescence intensity of the incorporated nuclear dye. Cell count IC50 is the test compound concentration at 50% of maximal response of the untreated control.

Which IC50 (BM-1604, read-out: Cell Count IC50, BM-1604, Prostate) does the source give for `CNc1cc(C)nc(Nc2ccc(OC)c(OCCCN3CCCC3)c2)n1` [Compound 205] here?
Its IC50 is greater than 10 µM.

What about the IC50 (C32TG, read-out: Cell Count IC50, C32TG, Skin, Melanoma) of the same compound?
The IC50 was 1 to 10 µM.

And the IC50 (CEM/C1, read-out: Cell Count IC50, CEM-C1, Hematopoietic, Leukemia)?
The IC50 was greater than 10 µM.

What about the IC50 (CML-T1, read-out: Cell Count IC50, CML-T1, Hematopoietic, Leukemia) of the same compound?
Its IC50 is 1 to 10 µM.

And the IC50 (D341 Med, read-out: Cell Count IC50, D341 Med, Central Nervous System, Medulloblastoma)?
Its IC50 is 1 to 10 µM.

What about the IC50 (HUH-6-clone5, read-out: Cell Count IC50, HUH-6 Clone 5, Liver) of the same compound?
Its IC50 is 1 to 10 µM.

What about the IC50 (Homo sapiens, 22Rv1, read-out: Cell Count IC50, 22Rv1, Prostate) of the same compound?
The IC50 was 1 to 10 µM.

What about the IC50 (Homo sapiens, 639-V, read-out: Cell Count IC50, 639-V, Bladder) of the same compound?
Its IC50 is greater than 10 µM.

And the IC50 (Homo sapiens, 647-V, read-out: Cell Count IC50, 647-V, Bladder)?
The IC50 was 1 to 10 µM.

And the IC50 (Homo sapiens, 769-P, read-out: Cell Count IC50, 769-P, Kidney)?
The IC50 was 1 to 10 µM.

What about the IC50 (Homo sapiens, 786-0, read-out: Cell Count IC50, 786-O, Kidney) of the same compound?
The IC50 was greater than 10 µM.

What about the IC50 (Homo sapiens, A101D, read-out: Cell Count IC50) of the same compound?
The IC50 was 1 to 10 µM.

And the IC50 (Homo sapiens, A 172, read-out: Cell Count IC50, A172, Central Nervous System, Glioma)?
The IC50 was 1 to 10 µM.

And the IC50 (Homo sapiens, A204, read-out: Cell Count IC50, A204, Soft & Connective Tissue, Sarcoma)?
Its IC50 is 0.01 to 0.1 µM.

What about the IC50 (Homo sapiens, A253, read-out: Cell Count IC50, A-253, Head and Neck) of the same compound?
Its IC50 is greater than 10 µM.

And the IC50 (Homo sapiens, A498, read-out: Cell Count IC50, A498, Kidney)?
Its IC50 is 1 to 10 µM.

And the IC50 (Homo sapiens, A549, read-out: Cell Count IC50, A549, Lung, NSCLC)?
The IC50 was greater than 10 µM.

What about the IC50 (Homo sapiens, A673, read-out: Cell Count IC50, A-673, Soft & Connective Tissue, Sarcoma) of the same compound?
Its IC50 is greater than 10 µM.

And the IC50 (Homo sapiens, A704, read-out: Cell Count IC50, A-704, Kidney)?
The IC50 was 1 to 10 µM.

And the IC50 (Homo sapiens, A2058, read-out: Cell Count IC50, A2058, Skin, Melanoma)?
Its IC50 is 1 to 10 µM.

What about the IC50 (Homo sapiens, A-375, read-out: Cell Count IC50, A375, Skin, Melanoma) of the same compound?
Its IC50 is 1 to 10 µM.

And the IC50 (Homo sapiens, A-427, read-out: Cell Count IC50, A427, Lung, NSCLC)?
Its IC50 is 1 to 10 µM.

What about the IC50 (Homo sapiens, A-431, read-out: Cell Count IC50, A431, Skin, Head and Neck) of the same compound?
The IC50 was 1 to 10 µM.

What about the IC50 (Homo sapiens, ACHN, read-out: Cell Count IC50, ACHN, Kidney) of the same compound?
The IC50 was 1 to 10 µM.

What about the IC50 (Homo sapiens, AN3-CA, read-out: Cell Count IC50, AN3 CA, Female GU, Uterus) of the same compound?
The IC50 was greater than 10 µM.

And the IC50 (Homo sapiens, ARH-77, read-out: Cell Count IC50, ARH-77, Hematopoietic, Myeloma)?
Its IC50 is 1 to 10 µM.

What about the IC50 (Homo sapiens, ASPC1, read-out: Cell Count IC50, AsPC-1, Pancreas) of the same compound?
Its IC50 is 1 to 10 µM.

What about the IC50 (Homo sapiens, BE(2)-C, read-out: Cell Count IC50, BE(2)C, Central Nervous System, Neuroblastoma) of the same compound?
Its IC50 is greater than 10 µM.

What about the IC50 (Homo sapiens, BFTC-905, read-out: Cell Count IC50, BFTC-905, Bladder) of the same compound?
Its IC50 is 0.01 to 0.1 µM.

What about the IC50 (Homo sapiens, BHT-101, read-out: Cell Count IC50, BHT-101, Endocrine, Thyroid) of the same compound?
The IC50 was 1 to 10 µM.

And the IC50 (Homo sapiens, BPH-1, read-out: Cell Count IC50, BPH1, Prostate)?
The IC50 was greater than 10 µM.

What about the IC50 (Homo sapiens, BT-20, read-out: Cell Count IC50, BT20, Breast) of the same compound?
Its IC50 is greater than 10 µM.

What about the IC50 (Homo sapiens, BT-474, read-out: Cell Count IC50, BT474, Breast) of the same compound?
Its IC50 is 1 to 10 µM.

And the IC50 (Homo sapiens, BT-549, read-out: Cell Count IC50, BT-549, Breast)?
Its IC50 is greater than 10 µM.

What about the IC50 (Homo sapiens, BV-173, read-out: Cell Count IC50, BV-173, Hematopoietic, Leukemia) of the same compound?
The IC50 was 1 to 10 µM.

What about the IC50 (Homo sapiens, BXPC-3, read-out: Cell Count IC50, BxPC-3, Pancreas) of the same compound?
Its IC50 is 1 to 10 µM.

What about the IC50 (Homo sapiens, BeWo, read-out: Cell Count IC50, BeWo, Placenta) of the same compound?
Its IC50 is greater than 10 µM.

What about the IC50 (Homo sapiens, C-4-II, read-out: Cell Count IC50, C-4 II, Female GU, Cervix) of the same compound?
Its IC50 is greater than 10 µM.

What about the IC50 (Homo sapiens, C-33-A, read-out: Cell Count IC50, C-33A, Female GU, Cervix) of the same compound?
Its IC50 is greater than 10 µM.

What about the IC50 (Homo sapiens, CA46, read-out: Cell Count IC50, CA46, Hematopoietic, Lymphoma) of the same compound?
The IC50 was 1 to 10 µM.

And the IC50 (Homo sapiens, CAKI-1, read-out: Cell Count IC50, Caki-1, Kidney)?
The IC50 was 1 to 10 µM.

And the IC50 (Homo sapiens, CAKI-2, read-out: Cell Count IC50, Caki-2, Kidney)?
Its IC50 is 1 to 10 µM.

What about the IC50 (Homo sapiens, CAL-27, read-out: Cell Count IC50, Cal 27, Head and Neck) of the same compound?
The IC50 was 1 to 10 µM.

And the IC50 (Homo sapiens, CAL-62, read-out: Cell Count IC50, CAL-62, Endocrine, Thyroid)?
The IC50 was greater than 10 µM.

What about the IC50 (Homo sapiens, CAMA-1, read-out: Cell Count IC50, CAMA-1, Breast) of the same compound?
Its IC50 is 1 to 10 µM.

And the IC50 (Homo sapiens, CAPAN-1, read-out: Cell Count IC50, Capan-1, Pancreas)?
Its IC50 is greater than 10 µM.

What about the IC50 (Homo sapiens, CCF-STTG1, read-out: Cell Count IC50, CCF-STTG1, Central Nervous System, Glioma) of the same compound?
Its IC50 is 1 to 10 µM.

What about the IC50 (Homo sapiens, CCRF-CEM, read-out: Cell Count IC50, CCRFCEM, Hematopoietic, Leukemia) of the same compound?
Its IC50 is greater than 10 µM.

And the IC50 (Homo sapiens, CFPAC-1, read-out: Cell Count IC50, CFPAC-1, Pancreas)?
Its IC50 is greater than 10 µM.

And the IC50 (Homo sapiens, CGTH-W-1, read-out: Cell Count IC50, CGTH-W-1, Endocrine, Thyroid)?
The IC50 was greater than 10 µM.

What about the IC50 (Homo sapiens, CHL-1, read-out: Cell Count IC50, CHL-1, Skin, Melanoma) of the same compound?
The IC50 was greater than 10 µM.

And the IC50 (Homo sapiens, CHP-212, read-out: Cell Count IC50, CHP-212, Central Nervous System, Neuroblastoma)?
Its IC50 is 0.1 to 1 µM.

What about the IC50 (Homo sapiens, COLO 201, read-out: Cell Count IC50, Colo 201, Colon) of the same compound?
The IC50 was 1 to 10 µM.

What about the IC50 (Homo sapiens, COLO 205, read-out: Cell Count IC50, Colo 205, Colon) of the same compound?
The IC50 was 1 to 10 µM.

What about the IC50 (Homo sapiens, COLO 320DM, read-out: Cell Count IC50, Colo 320DM, Colon) of the same compound?
Its IC50 is greater than 10 µM.

And the IC50 (Homo sapiens, COLO-320-HSR, read-out: Cell Count IC50, Colo 320 HSR, Colon)?
The IC50 was greater than 10 µM.

What about the IC50 (Homo sapiens, COLO-829, read-out: Cell Count IC50, COLO 829, Skin, Melanoma) of the same compound?
Its IC50 is 1 to 10 µM.

What about the IC50 (Homo sapiens, COR-L23, read-out: Cell Count IC50, COR-L23, Lung, NSCLC) of the same compound?
Its IC50 is 1 to 10 µM.

What about the IC50 (Homo sapiens, COR-L105, read-out: Cell Count IC50, COR-L105, Lung, NSCLC) of the same compound?
Its IC50 is 1 to 10 µM.

And the IC50 (Homo sapiens, Ca-Ski, read-out: Cell Count IC50, Ca Ski, Female GU, Cervix)?
The IC50 was 0.1 to 1 µM.

What about the IC50 (Homo sapiens, Calu-1, read-out: Cell Count IC50, Calu1, Lung, NSCLC) of the same compound?
The IC50 was greater than 10 µM.

And the IC50 (Homo sapiens, Calu-6, read-out: Cell Count IC50, Calu6, Lung, NSCLC)?
The IC50 was greater than 10 µM.

And the IC50 (Homo sapiens, Caov-3, read-out: Cell Count IC50, CaOV3, Female GU, Ovary)?
The IC50 was 1 to 10 µM.

What about the IC50 (Homo sapiens, Capan-2, read-out: Cell Count IC50, Capan-2, Pancreas) of the same compound?
Its IC50 is greater than 10 µM.

What about the IC50 (Homo sapiens, ChaGo-K-1, read-out: Cell Count IC50, ChaGoK1, Lung, NSCLC) of the same compound?
The IC50 was greater than 10 µM.

What about the IC50 (Homo sapiens, D283 Med, read-out: Cell Count IC50, D283 Med, Central Nervous System, Medulloblastoma) of the same compound?
The IC50 was 1 to 10 µM.

What about the IC50 (Homo sapiens, DBTRG-05MG, read-out: Cell Count IC50, DBTRG-05MG, Central Nervous System, Glioma) of the same compound?
The IC50 was 1 to 10 µM.

What about the IC50 (Homo sapiens, DLD-1, read-out: Cell Count IC50, DLD-1, Colon) of the same compound?
The IC50 was greater than 10 µM.

And the IC50 (Homo sapiens, DMS-53, read-out: Cell Count IC50, DMS53, Lung, SCLC)?
The IC50 was 0.1 to 1 µM.

And the IC50 (Homo sapiens, DMS-114, read-out: Cell Count IC50, DMS114, Lung, SCLC)?
The IC50 was 1 to 10 µM.

What about the IC50 (Homo sapiens, DOHH-2, read-out: Cell Count IC50, DOHH-2, Hematopoietic, Lymphoma) of the same compound?
Its IC50 is 1 to 10 µM.

From US20240180880A1, “METHODS OF USING EHMT2 INHIBITORS IN TREATING OR PREVENTING BLOOD DISORDERS” (Epizyme, Inc., priority 2017, published 2024)
